# From patent US20210276978A1, “INHIBITORS OF HISTONE DEACETYLASE” (Alkermes, Inc., priority 2018, published 2021)
# Legend:
# Full length Human HDAC1 = molecular target: T1, Full length Human HDAC1 (Homo sapiens, UniProt Q13547); experiment: HDAC1 enzymatic assay (deacetylation of FAM-labeled peptide substrate, microfluidic electrophoresis); type: biochemical; conditions: 1 uM substrate peptide
# T1 construct: Full length Human HDAC1 with; His (C); FLAG (C); host or cells: baculovirus expression system
# T1 sequence (Q13547 whole entry): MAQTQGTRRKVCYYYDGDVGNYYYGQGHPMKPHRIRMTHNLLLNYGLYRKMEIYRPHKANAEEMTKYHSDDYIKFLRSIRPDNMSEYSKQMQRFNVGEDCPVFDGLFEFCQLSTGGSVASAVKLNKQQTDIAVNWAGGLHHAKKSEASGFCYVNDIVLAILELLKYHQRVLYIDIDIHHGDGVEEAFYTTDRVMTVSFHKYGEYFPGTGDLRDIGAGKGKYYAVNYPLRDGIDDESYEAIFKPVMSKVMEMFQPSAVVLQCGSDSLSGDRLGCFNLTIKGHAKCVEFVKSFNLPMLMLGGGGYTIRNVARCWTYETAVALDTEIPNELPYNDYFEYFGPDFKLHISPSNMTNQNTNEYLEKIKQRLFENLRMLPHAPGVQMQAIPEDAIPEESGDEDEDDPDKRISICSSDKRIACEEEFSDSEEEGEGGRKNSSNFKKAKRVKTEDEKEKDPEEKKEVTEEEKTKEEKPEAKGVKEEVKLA
# Experimental: (§1) HDAC2 and HDAC1 Enzymatic Assay (HDAC2 and HDAC1 IC50 Data)
# (§2) The following describes an assay protocol for measuring the deacetylation of a peptide substrate by HDAC2 or HDAC1.
# (§3) HDAC protein composition and respective substrate peptides are summarized below.
# (§4) HDAC reactions are assembled in 384 well plates (Greiner) in a total volume of 20 µL as following:
# (§5) HDAC proteins are pre-diluted in the assay buffer comprising: 100 mM HEPES, pH 7.5, 0.1% BSA, 0.01% Triton X-100, 25 mM KCl and dispensed into 384 well plate (10 uL per well).
# (§6) Test compounds are serially pre-diluted in DMSO and added to the protein samples by acoustic dispensing (Labcyte Echo). Concentration of DMSO is equalized to 1% in all samples.
# (§7) Control samples (0%-inhibition in the absence of inhibitor, DMSO only) and 100%-inhibition (in the absence of enzyme) are assembled in replicates of four and used to calculate the %-inhibition in the presence of compounds.
# (§8) At this step compounds can be pre-incubated with enzyme if desired.
# (§9) The reactions are initiated by addition of 10 uL of the FAM-labeled substrate peptide pre-diluted in the same assay buffer. Final concentration of substrate peptide is 1 uM (HDAC1-2). The reactions are allowed to proceed at room temperature. Following incubation, the reactions are quenched by addition of 50 µL of termination buffer (100 mM HEPES, pH7.5, 0.01% Triton X-100, 0.1% SDS). Terminated plates are analyzed on a microfluidic electrophoresis instrument (Caliper LabChip® 3000, Caliper Life Sciences/Perkin Elmer) which enables electrophoretic separation of de-acetylated product from acetylated substrate. A change in the relative intensity of the peptide substrate and product is the parameter measured. Activity in each test sample is determined as the product to sum ratio (PSR): P/(S+P), where P is the peak height of the product, and S is the peak height of the substrate. Percent inhibition (Pinh) is determined using the following equation: Pinh=(PSR0% inh−PSRcompound)/(PSR0% inh−PSR100% inh)*100, in which: PSRcompound is the product/sum ratio in the presence of compound, PSR0% inh is the product/sum ratio in the absence of compound and the PSR100% inh is the product/sum ratio in the absence of the enzyme. To determine IC50 of compounds (50%-inhibition) the %-inh data (Pinh versus compound concentration) are fit by a 4 parameter sigmoid dose-response model using XLfit software (IDBS).
# (§10) In the table, “A” indicates a IC50 value of less than 0.5 “B” a IC50 value from 0.5 μM to 1.0 μM; “C” a IC50 value of greater than 1.0 μM and less than or equal to 2.0 μM; and “D” indicates an IC50 value of greater than 2.0 NT=Not Tested.
# HDAC2 = molecular target: T2, HDAC2 (Homo sapiens, UniProt Q92769); experiment: HDAC2 enzymatic inhibition assay in SH-SY5Y cell lysate with an exogenous substrate (HDAC-Glo 2); type: cell-based; conditions: for IC50: SH-SY5Y cells
# T2 construct: host or cells: SH-SY5Y cells
# T2 sequence (Q92769 whole entry): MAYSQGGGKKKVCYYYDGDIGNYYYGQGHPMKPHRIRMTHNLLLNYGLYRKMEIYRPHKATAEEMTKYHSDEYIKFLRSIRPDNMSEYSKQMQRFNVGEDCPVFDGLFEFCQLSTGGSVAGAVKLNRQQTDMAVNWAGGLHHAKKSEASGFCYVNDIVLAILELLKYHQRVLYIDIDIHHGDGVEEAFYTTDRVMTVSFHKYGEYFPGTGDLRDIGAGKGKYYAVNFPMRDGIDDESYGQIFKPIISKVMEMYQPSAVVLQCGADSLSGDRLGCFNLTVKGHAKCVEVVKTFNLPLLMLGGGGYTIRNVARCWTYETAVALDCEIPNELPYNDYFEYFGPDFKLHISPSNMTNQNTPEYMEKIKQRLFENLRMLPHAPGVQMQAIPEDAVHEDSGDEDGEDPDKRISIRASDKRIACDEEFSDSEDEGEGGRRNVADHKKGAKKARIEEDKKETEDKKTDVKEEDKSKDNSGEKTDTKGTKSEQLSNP
# Experimental: HDAC2 Enzymatic Inhibition Assay in SH-SY5Y Cell Lysate with an Exogenous Substrate
# SH-SY5Y cells (Sigma) were cultured in Eagle's Modified Essential Medium supplemented with 10% fetal bovine serum and pen/strep. Twenty-four hours prior to compound dosing 20 uL of cells were plated in white 384 well plates at a density of 1,500 cells/well. Compounds were serially diluted in neat DMSO and then diluted 1:100 v/v into media without FBS and mixed. Media was removed from the plated cells and the diluted compounds in serum free media (1% v/v final DMSO) were added and incubated at 37.0 for five hours. Ten uL of HDAC-Glo 2 reagent with 0.1% Triton X-100 was then added, the plate was mixed and allowed to develop at room temperature for 100 minutes. Plates were then read with a Spectramax LMax luminometer employing a 0.4 s integration time. Dose response curves were constructed with normalized data where CI-994 at 100 uM was defined as 100% inhibition and DMSO alone as 0% inhibition.
# In the table, “A” indicates a IC50 value of less than 0.5 μM; “B” a IC50 value from 0.5 μM to 1.0 μM; “C” a IC50 value of greater than 1.0 μM and less than or equal to 2.0 μM; and “D” indicates an IC50 value of greater than 2.0 μM. NT=Not Tested.
# Full length Human HDAC2 = molecular target: T3, Full length Human HDAC2 (Homo sapiens, UniProt Q92769); experiment: HDAC2 enzymatic assay (deacetylation of FAM-labeled peptide substrate, microfluidic electrophoresis); type: biochemical; conditions: 1 uM substrate peptide
# T3 construct: Full length Human HDAC2 with; FLAG (C); host or cells: baculovirus expression system
# T3 sequence (Q92769 whole entry): as above
# Experimental: as §1, §2, §3, §4, §5, §6, §7, §8, §9, §10
# [1] = five hours incubation, HDAC-Glo 2 reagent, class symbols
# [2] = HDAC-Glo 2, numeric values, Table 4
# [3] = HDAC2 SH-SY5Y cell lysate assay
SMILES,IC50 (Full length Human HDAC1) [nM],IC50 (HDAC2; [1]) [nM],IC50 (Full length Human HDAC2) [nM],IC50 (HDAC2; [2]) [nM],fold more potent than Comparator A (HDAC2; [3]) [fold],potency compared with Comparators A-C (HDAC2; [3])
"Nc1ccc(-c2ccc(F)cc2F)nc1NC(=O)N1CCC(c2ncc(F)cn2)C1 (single isomer, unassigned) [Compound 14E2]",500 to 1000,> 2000,> 2000,,,
Nc1ccc(-c2ccc(F)cc2F)nc1NC(=O)N1CCC(c2ccccn2)C1 (centres unmarked) [Compound 1],500 to 1000,> 2000,1000 to 2000,,,
"Nc1ccc(-c2ccc(F)cc2F)nc1NC(=O)N1CCC(F)(c2ncccn2)C1 (single isomer, unassigned) [Compound 29E2]",1000 to 2000,1000 to 2000,1000 to 2000,,,
"Nc1ccc(-c2ccc(F)cc2)nc1NC(=O)N1CCC(F)(c2ncc(F)cn2)C1 (single isomer, unassigned) [Compound 52]",500 to 1000,> 2000,1000 to 2000,,,
Cc1cnc(C2CCN(C(=O)Nc3nc(-c4ccc(F)cc4)ccc3N)C2)o1 (centres unmarked) [Compound 46],500 to 1000,> 2000,1000 to 2000,,,
"Nc1ccc(-c2ccc(F)cc2F)nc1NC(=O)N1CCC(Cc2ncccn2)C1 (single isomer, unassigned) [Compound 25E1]",1000 to 2000,500 to 1000,1000 to 2000,,,
"Cc1ccnc(C2CCN(C(=O)Nc3nc(-c4ccc(F)cc4)ccc3N)C2)n1 (single isomer, unassigned) [Compound 50]",1000,> 2000,1000 to 2000,,,
Nc1ccc(-c2ccccc2F)nc1NC(=O)N1CCC(c2ncc(F)cn2)C1 (centres unmarked) [Compound 21],500 to 1000,1000 to 2000,1000 to 2000,,,
"Nc1ccc(-c2ccc(F)s2)nc1NC(=O)N1CCC(c2ncccn2)C1 (single isomer, unassigned) [Compound 39]",1000 to 2000,> 2000,1000 to 2000,,,
Nc1ccc(-c2cccs2)nc1NC(=O)N1CCC(c2ncccn2)C1 (centres unmarked) [Compound 41],< 500,500 to 1000,500 to 1000,,,
Nc1ccc(-c2ccc(F)cc2F)nc1NC(=O)N1CCC(Oc2ncccn2)C1 (centres unmarked) [Compound 23],> 2000,> 2000,> 2000,,,
Nc1ccc(-c2ccc(F)cc2F)nc1NC(=O)N1CCC(F)(c2ncccn2)C1 (centres unmarked) [Compound 29],< 500,500 to 1000,500 to 1000,768,,
"Nc1ccc(-c2ccc(F)cc2)nc1NC(=O)N1CCC(c2ncccn2)C1 (single isomer, unassigned) [Compound 19E2]",< 500,500 to 1000,< 500,,,
Nc1ccc(-c2ccc(F)cc2)nc1NC(=O)N1CCC(c2ncc(F)cn2)C1 (centres unmarked) [Compound 20],< 500,1000 to 2000,500 to 1000,1130,> 2,greater potency
Nc1ccc(-c2ccc(F)cc2F)nc1NC(=O)N1CCC(c2cccnn2)C1 (centres unmarked) [Compound 9],500 to 1000,1000 to 2000,1000 to 2000,,,
Nc1ccc(-c2ccc(F)cc2F)nc1NC(=O)N1CCC(c2ccncc2)C1 (centres unmarked) [Compound 3],> 2000,> 2000,> 2000,,,
Nc1ccc(-c2ccc(F)cc2F)nc1NC(=O)N1CCC(c2ncc(F)cn2)C1 (centres unmarked) [Compound 14],500 to 1000,1000 to 2000,500 to 1000,,,
Nc1ccc(-c2ccc(F)cc2F)nc1NC(=O)N1CCC(c2ncccn2)C1 (racemic) [Compound 7],< 500,500 to 1000,500 to 1000,,,
"Nc1ccc(-c2ccc(F)cc2)nc1NC(=O)N1CCC(F)(c2ncccn2)C1 (single isomer, unassigned) [Compound 55]",< 500,500 to 1000,< 500,,,
"Nc1ccc(-c2ccc(F)s2)nc1NC(=O)N1CCC(c2ncccn2)C1 (single isomer, unassigned) [Compound 40]",< 500,500 to 1000,< 500,,,
"Nc1ccc(-c2ccc(F)s2)nc1NC(=O)N1CCC(c2ncc(F)cn2)C1 (single isomer, unassigned) [Compound 44]",< 500,500 to 1000,500 to 1000,,,
Cn1ccnc1CC1CCN(C(=O)Nc2nc(-c3ccc(F)cc3F)ccc2N)C1 (centres unmarked) [Compound 36],< 500,500 to 1000,500 to 1000,,,
Nc1ccc(-c2ccc(F)cc2F)nc1NC(=O)N1CCC(Cc2cccnn2)C1 (centres unmarked) [Compound 26],1000 to 2000,500 to 1000,1000 to 2000,535,,
